Experimental data published in US20170189372A1, “USE OF SUBSTITUTED CHROMAN COMPOUNDS” (INSTYTUT BIOLOGII MEDYCZNEJ, priority 2014, published 2017).

Columns and labels:
[1] = tested on: reporter cell line for IL-2 (EL-4 cells); test: FCC primary screening with IL-2 reporter cells; assay type: cell-based, mouse; conditions: relative viability×(relative fluorescence−100); PMA and ionomycin activated, compound 0.4 μg/ml, 18 h
Method: (§1) Development of reporter cell lines was described previously (Ulleras, E., D. Trzaska, et al. (2005); “Development of the “Cell Chip”: a new in vitro alternative technique for immunotoxicity testing”, Toxicology 206(2): 245-56). Briefly, EL-4 cells were stably transfected with transgene consisting of promoter regions from mouse β-actin, interleukin-2 (IL-2), interleukin-4 (IL-4), interferon-γ (IFN-γ), and interleukin-10 (IL-10) and ORF for EGFP. Reporter cells were cultured at density 5×10^5-1×10^6 cells/ml in a humidified atmosphere with 5% CO2 at 37° C. in RPMI 1640 with Glutamax supplemented with 20% FCS and 0.5 μg/ml G418.
(§2) When applicable, cells and reagents handling was performed by JANUS Automated Workstation (PerkinElmer, Waltham, Mass., USA). Cells were seeded at a density of 5×10^4 per well in 96-well plates. In the primary screening reporter cells for IL-2 activated with PMA (50 ng/ml) and ionomycin (1 μM) were seeded in a 96-well plate and incubated with compounds from the chemical library in a total volume of 100 μL at 37° C. in a humidified atmosphere with 5% CO2 for 18 h. Concentration of compounds was 0.4 μg/ml. The final DMSO concentration was 0.2%, DMSO is not cytotoxic towards EL-4 reporter cells at this concentration. Control samples consisted of cells in medium with 0.2% DMSO with PMA (50 ng/ml) and ionomycin (1 μM). Following incubation cells were analyzed by flow cytometry. Viability was assessed in parallel to the level of EGFP-mediated fluorescence.
Selection of compounds was based on FCC parameters calculated using the following formula:
FCC parameter=relative viability×(relative fluorescence−100)
(§3) Compounds after primary screening were considered to be hits when FCC parameter calculated after primary screening was ≦−5000. After secondary screening area under the curve (A) of FCC parameter versus relative concentration was calculated (maximum concentration used, i.e. 50 μg/ml, was assumed to be 1).

[2] = tested on: reporter cell line for β-actin (EL-4 cells); test: FCC test, expanded version, β-actin reporter cell line; assay type: cell-based, mouse; conditions: PMA and ionomycin, 1.56 to 50 μg/ml, 50 μg/ml assumed to be 1
Method: as §1
as §3, with “1). […]” for “1).”
(§4) Flavonoids selected after preliminary screening were undergoing FCC testing using 5 reporter cell lines: for β-actin, interleukin-2 (IL-2), interleukin-4 (IL-4), interferon-γ (IFN-γ) and interleukin-10 (IL-10). The tested concentrations were in the range from 1.56 to 50 μg/ml.
(§5) Using flow cytometry mean fluorescence intensity (columns, left Y axis) and cell viability (dots, the right Y-axis) was determined for all the experimental points and normalized relative to the control—cells incubated with medium with PMA and ionomycin. The data is the mean of the three experiments ±SEM. The statistical significance of differences between means were determined: * p<0.05, ** p<0.01, *** p<0.001 versus control. Values above the graph represent the area under the curve showing the relationship of the FCC parameter and the relative compound concentration.

[3] = tested on: reporter cell line for interleukin-2 (EL-4 cells); test: FCC test, expanded version, IL-2 reporter cell line; assay type: cell-based, mouse; conditions: for The area under the curve showing the relationship between the FCC parameter and compound concentration, IL-2: IL-2 reporter line, PMA and ionomycin, 1.56 to 50 μg/ml, 50 μg/ml assumed to be 1
Method: as §1
as §3, with “1). […]” for “1).”
as §4, §5

[4] = tested on: reporter cell line for interleukin-4 (EL-4 cells); test: FCC test, expanded version, IL-4 reporter cell line; assay type: cell-based, mouse; conditions: for The area under the curve showing the relationship between the FCC parameter and compound concentration, IL-4: IL-4 reporter line, PMA and ionomycin, 1.56 to 50 μg/ml, 50 μg/ml assumed to be 1
Method: as §1
as §3, with “1). […]” for “1).”
as §4, §5

[5] = tested on: IL-2 production by Jurkat cells; test: ELISA for IL-2 in Jurkat cells; assay type: cell-based; conditions: for inhibition at 10 µg/mL / inhibition at 50 µg/mL: Homo sapiens; for inhibition at 50 µg/mL: 50 μg/ml
Method: Jurkat cells were seeded in 48-well plates at a concentration of 1 million/ml. Cells activated with PMA (50 ng/ml) and ionomycin (1 uM) or resting were incubated with 50 selected flavonoids in a concentration of 10 μg/ml and 50 μg/ml for 24 hours in a humidified atmosphere with 5% CO 2 at 37° C. As a control, the respective cells in the medium or in a medium with PMA and ionomycin were employed. After incubation, cells were centrifuged (8 minutes, 1300 rpm), and the cell-free supernatants were stored at −20° C. until measurements. IL-2 was assessed using a commercially available ELISA kits according to the manufacturer's instructions. Each experiment was repeated 3 times.
FCC assay and ELISA assay were repeated three times. Relative data were presented as the means±SEM. […] Statistical significance of differences observed in both assays was tested with ANOVA followed by post hoc Dunnett test using GraphPad software (La Jolla, Calif., USA). In statistical analysis non-relative data were used

[6] = tested on: reporter cell line EL-4; test: Viability of reporter cells in FCC assay; assay type: cell-based, mouse; conditions: at concentrations up to 25 mg/ml
Method: as §2
as §5, with “Values above the graph represent the area under the curve showing the relationship of the FCC parameter and the relative compound concentration.” left out

[7] = tested on: reporter cell line for interferon-γ (EL-4 cells); test: FCC test, expanded version, IFN-γ reporter cell line; assay type: cell-based, mouse; conditions: PMA and ionomycin, 1.56 to 50 μg/ml, 50 μg/ml assumed to be 1
Method: as §1
as §3, with “1). […]” for “1).”
as §4, §5

[8] = tested on: reporter cell line for interleukin-10 (EL-4 cells); test: FCC test, expanded version, IL-10 reporter cell line; assay type: cell-based, mouse; conditions: IL-10 reporter line; PMA and ionomycin; 1.56 to 50 μg/ml, 50 μg/ml assumed to be 1
Method: as §1
as §3, with “1). […]” for “1).”
as §4, §5

[9] = 10 μg/ml, Jurkat cells, PMA and ionomycin, 24 hours
[10] = Jurkat cells, PMA and ionomycin, 24 hours

Structure (SMILES) | FCC parameter (IL-2 screening) [1] | The area under the curve showing the relationship between the FCC parameter and compound concentration, AKT [2] | inhibition of PMA and ionomycin induced EGFP-mediated fluorescence (in words) ([3]; FCC test, reporter cell lines not specified, judged by area under the curve) | decrease in EGFP-mediated fluorescence ([3]; reporter cell line for IL-2, 25 μg/ml) | decrease in EGFP-mediated fluorescence ([4]; reporter cell line for IL 4, 25 μg/ml) | inhibition at 10 µg/mL [5, 9] [%] | inhibition at 50 µg/mL [5, 10] [%] | inhibition of PMA and ionomycin induced IL-2 production by ELISA (in words) ([5]; concentration not given) | cytotoxicity in the reporter cell line EL-4 [6] | The area under the curve showing the relationship between the FCC parameter and compound concentration, IL-2 [3] | The area under the curve showing the relationship between the FCC parameter and compound concentration, IL-4 [4] | The area under the curve showing the relationship between the FCC parameter and compound concentration, IFN [7] | The area under the curve showing the relationship between the FCC parameter and compound concentration, IL-10 [8] | Inhibition of IL-2 production (ELISA) [5, 9]
CC(=O)Oc1cc2c(cc1Cl)C(C)(C)CC(C)(c1cc(Cl)c(OC(C)=O)cc1OC(C)=O)O2 (stereo not shown) [Compound 12, 2-(2,4-diacetyloxy-5-chlorophenyl)-6-chloro-2,4,4-trimethylchroman-7-yl acetate] | −7615 | −2936 | highest inhibition | more than 90% | more than 90% | 100 | 83 | strongly inhibited | not cytotoxic | – | – | – | – | –
O=C1CC(c2ccccc2O)Oc2ccc(O)cc21 (stereo not shown) [Compound 6, 6-hydroxy-2-(2-hydroxyphenyl)chroman-4-one] | −5169 | 3622 | – | – | – | 58 | 100 | – | – | −2227 | 367 | −2999 | −179 | –
COc1ccc(C2CC(=O)c3cc(O)cc(O)c3O2)cc1 (stereo not shown) [Compound 1, 6,8-dihydroxy-2-(4-methoxyphenyl)chroman-4-one] | −8723 | −622 | – | – | – | – | 97 | – | – | −2178 | −194 | −1865 | −1435 | No
